# Assay results: patent US7875647B2, “Heteroaryl-pyrazole derivatives as cannabinoid CB1 receptor antagonists” (Green Cross Corporation, priority 2006, dated 2011)
# Like-named read-outs stand apart in the source and are kept apart here.
# Biological target: T1, Cannabinoid-1 receptor (CB1R) (Rattus norvegicus, UniProt P20272)
# T1 construct: The tissue obtained from the brain of SD rats was homogenized; from tissue; host or cells: brain of SD rats (membrane pellet of the homogenate)
# Assay: Cannabinoid-1 receptor (CB1R) binding affinity assay ([3H]CP-55940, rat CB-1 receptor binding protocol)
# Settings: brain tissue of SD rats, [3H]CP-55940, 30° C. 60 min
# T1 sequence (P20272 whole entry): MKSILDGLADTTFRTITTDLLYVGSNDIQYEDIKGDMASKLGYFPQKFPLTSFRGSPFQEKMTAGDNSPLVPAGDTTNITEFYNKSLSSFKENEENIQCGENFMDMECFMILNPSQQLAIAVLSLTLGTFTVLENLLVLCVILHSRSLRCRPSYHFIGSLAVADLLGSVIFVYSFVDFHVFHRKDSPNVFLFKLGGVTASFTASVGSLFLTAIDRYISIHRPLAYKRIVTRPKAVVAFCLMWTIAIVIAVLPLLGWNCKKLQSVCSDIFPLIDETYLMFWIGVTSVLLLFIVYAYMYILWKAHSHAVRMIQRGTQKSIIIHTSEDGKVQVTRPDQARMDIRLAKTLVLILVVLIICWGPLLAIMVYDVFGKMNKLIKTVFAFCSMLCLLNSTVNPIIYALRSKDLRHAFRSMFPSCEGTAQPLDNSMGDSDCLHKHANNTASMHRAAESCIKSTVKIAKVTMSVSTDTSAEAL
Compound,IC50 (read-out: IC50),IC50 (IC50(nM))
"CC(C)(C)c1nnc(-c2nn(-c3ccc(Cl)cc3Cl)c(-c3ccc(Br)cc3)c2C=O)o1 [Example 203, 5-(4-bromophenyl)-3-(5-tert-butyl-1,3,4-oxadiazol-2-yl)-1-(2,4-dichlorophenyl)-1H-pyrazole-4-carbaldehyde]",18.8 nM,–
"O=Cc1c(-c2nnc(C3(c4ccc(Cl)cc4)CC3)o2)nn(-c2ccc(Cl)cc2Cl)c1-c1ccc(Cl)cc1 [Example 204, 5-(4-chlorophenyl)-3-(5-(1-(4-chlorophenyl)cyclopropyl)-1,3,4-oxadiazol-2-yl)-1-(2,4-dichlorophenyl)-1H-pyrazole-4-carbaldehyde]",5.39 nM,–
"COCc1c(-c2nnc(C(C)(C)C)o2)nn(-c2ccc(Cl)cc2Cl)c1-c1ccc(Cl)cc1 [Example 205, 2-tert-butyl-5-(5-(4-chlorophenyl)-1-(2,4-dichlorophenyl)-4-(methoxymethyl)-1H-pyrazol-3-yl)-1,3,4-oxadiazole]",15.4 nM,–
"CCCCOCc1c(-c2nnc(C(C)(C)C)o2)nn(-c2ccc(Cl)cc2Cl)c1-c1ccc(Cl)cc1 [Example 206, 2-(4-(butoxymethyl)-5-(4-chlorophenyl)-1-(2,4-dichlorophenyl)-1H-pyrazol-3-yl)-5-tert-butyl-1,3,4-oxadiazole]",113 nM,–
"CC(O)c1c(-c2nnc(C(C)(C)C)o2)nn(-c2ccc(Cl)cc2Cl)c1-c1ccc(Cl)cc1 (stereo not shown) [Example 207, 1-(3-(5-tert-butyl-1,3,4-oxadiazol-2-yl)-5-(4-chlorophenyl)-1-(2,4-dichlorophenyl)-1H-pyrazol-4-yl)ethanol]",10.1 nM,–
"CC(O)c1c(-c2nnc(C(C)(C)C)o2)nn(-c2ccc(Cl)cc2Cl)c1-c1ccc(Br)cc1 (stereo not shown) [Example 208, 1-(5-(4-bromophenyl)-3-(5-tert-butyl-1,3,4-oxadiazol-2-yl)-1-(2,4-dichlorophenyl)-1H-pyrazol-4-yl)ethanol]",6.72 nM,–
"CC(O)c1c(-c2nnc(C3(c4ccc(Cl)cc4)CC3)o2)nn(-c2ccc(Cl)cc2Cl)c1-c1ccc(Cl)cc1 (stereo not shown) [Example 209, 1-(5-(4-chlorophenyl)-3-(5-(1-(4-chlorophenyl)cyclopropyl)-1,3,4-oxadiazol-2-yl)-1-(2,4-dichlorophenyl)-1H-pyrazol-4-yl)ethanol]",5.77 nM,–
"CC(F)c1c(-c2nnc(C(C)(C)C)o2)nn(-c2ccc(Cl)cc2Cl)c1-c1ccc(Cl)cc1 (stereo not shown) [Example 210, 2-tert-butyl-5-(5-(4-chlorophenyl)-1-(2,4-dichlorophenyl)-4-(1-fluoroethyl)-1H-pyrazol-3-yl)-1,3,4-oxadiazole]",14.1 nM,–
"CC(F)c1c(-c2nnc(C(C)(C)C)o2)nn(-c2ccc(Cl)cc2Cl)c1-c1ccc(Br)cc1 (stereo not shown) [Example 211, 2-(5-(4-bromophenyl)-1-(2,4-dichlorophenyl)-4-(1-fluoroethyl)-1H-pyrazol-3-yl)-5-tert-butyl-1,3,4-oxadiazole]",12.1 nM,–
"CC(F)c1c(-c2nnc(C3(c4ccc(Cl)cc4)CC3)o2)nn(-c2ccc(Cl)cc2Cl)c1-c1ccc(Cl)cc1 (stereo not shown) [Example 212, 2-(5-(4-chlorophenyl)-1-(2,4-dichlorophenyl)-4-(1-fluoroethyl)-1H-pyrazol-3-yl)-5-(1-(4-chlorophenyl)cyclopropyl)-1,3,4-oxadiazole]",4.97 nM,–
"CC(=O)c1c(-c2nnc(C(C)(C)C)o2)nn(-c2ccc(Cl)cc2Cl)c1-c1ccc(Cl)cc1 [Example 213, 1-(3-(5-tert-butyl-1,3,4-oxadiazol-2-yl)-5-(4-chlorophenyl)-1-(2,4-dichlorophenyl)-1H-pyrazol-4-yl)ethanone]",49.4 nM,–
"CC(=O)c1c(-c2nnc(C(C)(C)C)o2)nn(-c2ccc(Cl)cc2Cl)c1-c1ccc(Br)cc1 [Example 214, 1-(5-(4-bromophenyl)-3-(5-tert-butyl-1,3,4-oxadiazol-2-yl)-1-(2,4-dichlorophenyl)-1H-pyrazol-4-yl)ethanone]",11.9 nM,–
"CC(=O)c1c(-c2nnc(C3(c4ccc(Cl)cc4)CC3)o2)nn(-c2ccc(Cl)cc2Cl)c1-c1ccc(Cl)cc1 [Example 215, 1-(5-(4-chlorophenyl)-3-(5-(1-(4-chlorophenyl)cyclopropyl)-1,3,4-oxadiazol-2-yl)-1-(2,4-dichlorophenyl)-1H-pyrazol-4-yl)ethanone]",10.8 nM,–
"CC(=O)Oc1c(-c2nnc(C(C)(C)C)o2)nn(-c2ccc(Cl)cc2Cl)c1-c1ccc(Cl)cc1 [Example 216, 3-(5-tert-butyl-1,3,4-oxadiazol-2-yl)-5-(4-chlorophenyl)-1-(2,4-dichlorophenyl)-1H-pyrazol-4-yl acetate]",57.3 nM,–
"CC(C)(C)c1nnc(-c2nn(-c3ccc(Cl)cc3Cl)c(-c3ccc(Cl)cc3)c2C(C)(C)O)o1 [Example 217, 2-(3-(5-tert-butyl-1,3,4-oxadiazol-2-yl)-5-(4-chlorophenyl)-1-(2,4-dichlorophenyl)-1H-pyrazol-4-yl)propan-2-ol]",22.6 nM,–
"CC(C)(C)c1nnc(-c2nn(-c3ccc(Cl)cc3Cl)c(-c3ccc(Br)cc3)c2C(C)(C)O)o1 [Example 218, 2-(5-(4-bromophenyl)-3-(5-tert-butyl-1,3,4-oxadiazol-2-yl)-1-(2,4-dichlorophenyl)-1H-pyrazol-4-yl)propan-2-ol]",17.1 nM,–

Compound,IC50 (read-out: IC50),IC50 (IC50(nM))
"C=C(C)c1c(-c2nnc(C(C)(C)C)o2)nn(-c2ccc(Cl)cc2Cl)c1-c1ccc(Cl)cc1 [Example 219, 2-tert-butyl-5-(5-(4-chlorophenyl)-1-(2,4-dichlorophenyl)-4-(prop-1-en-2-yl)-1H-pyrazol-3-yl)-1,3,4-oxadiazole]",4.83 nM,–
"C=C(C)c1c(-c2nnc(C(C)(C)C)o2)nn(-c2ccc(Cl)cc2Cl)c1-c1ccc(Br)cc1 [Example 220, 2-(5-(4-bromophenyl)-1-(2,4-dichlorophenyl)-4-(prop-1-en-2-yl)-1H-pyrazol-3-yl)-5-tert-butyl-1,3,4-oxadiazole]",–,8.26 nM
"CC(C)(C)c1nnc(-c2nn(-c3ccc(Cl)cc3Cl)c(-c3ccc(Cl)cc3)c2CF)o1 [Example 221, 2-tert-butyl-5-(5-(4-chlorophenyl)-1-(2,4-dichlorophenyl)-4-(fluoromethyl)-1H-pyrazol-3-yl)-1,3,4-oxadiazole]",14.7 nM,–
"CC(C)(C)c1nnc(-c2nn(-c3ccc(Cl)cc3Cl)c(-c3ccc(Br)cc3)c2CF)o1 [Example 222, 2-(5-(4-bromophenyl)-1-(2,4-dichlorophenyl)-4-(fluoromethyl)-1H-pyrazol-3-yl)-5-tert-butyl-1,3,4-oxadiazole]",7.99 nM,–
"FCc1c(-c2nnc(C3(c4ccc(Cl)cc4)CC3)o2)nn(-c2ccc(Cl)cc2Cl)c1-c1ccc(Cl)cc1 [Example 223, 2-(5-(4-chlorophenyl)-1-(2,4-dichlorophenyl)-4-(fluoromethyl)-1H-pyrazol-3-yl)-5-(1-(4-chlorophenyl)cyclopropyl)-1,3,4-oxadiazole]",7.89 nM,–
"CC(C)(C)c1nnc(-c2nn(-c3ccc(Cl)cc3Cl)c(-c3ccc(Cl)cc3)c2C(F)F)o1 [Example 224, 2-tert-butyl-5-(5-(4-chlorophenyl)-1-(2,4-dichlorophenyl)-4-(difluoromethyl)-1H-pyrazol-3-yl)-1,3,4-oxadiazole]",36.1 nM,–
"FC(F)c1c(-c2nnc(C3(c4ccc(Cl)cc4)CC3)o2)nn(-c2ccc(Cl)cc2Cl)c1-c1ccc(Cl)cc1 [Example 225, 2-(5-(4-chlorophenyl)-1-(2,4-dichlorophenyl)-4-(difluoromethyl)-1H-pyrazol-3-yl)-5-(1-(4-chlorophenyl)cyclopropyl)-1,3,4-oxadiazole]",12.1 nM,–
"COC(C)c1c(-c2nnc(C(C)(C)C)o2)nn(-c2ccc(Cl)cc2Cl)c1-c1ccc(Cl)cc1 (stereo not shown) [Example 226, 2-tert-butyl-5-(5-(4-chlorophenyl)-1-(2,4-dichlorophenyl)-4-(1-methoxyethyl)-1H-pyrazol-3-yl)-1,3,4-oxadiazole]",62.7 nM,–
"C=Cc1c(-c2nnc(C(C)(C)C)o2)nn(-c2ccc(Cl)cc2Cl)c1-c1ccc(Cl)cc1 [Example 227, 2-tert-butyl-5-(5-(4-chlorophenyl)-1-(2,4-dichlorophenyl)-4-vinyl-1H-pyrazol-3-yl)-1,3,4-oxadiazole]",16.9 nM,–
"C=Cc1c(-c2nnc(C(C)(C)C)o2)nn(-c2ccc(Cl)cc2Cl)c1-c1ccc(Br)cc1 [Example 228, 2-(5-(4-bromophenyl)-1-(2,4-dichlorophenyl)-4-vinyl-1H-pyrazol-3-yl)-5-tert-butyl-1,3,4-oxadiazole]",–,16.6 nM
"C=Cc1c(-c2nnc(C3(c4ccc(Cl)cc4)CC3)o2)nn(-c2ccc(Cl)cc2Cl)c1-c1ccc(Cl)cc1 [Example 229, 2-(5-(4-chlorophenyl)-1-(2,4-dichlorophenyl)-4-vinyl-1H-pyrazol-3-yl)-5-(1-(4-chlorophenyl)cyclopropyl)-1,3,4-oxadiazole]",14.1 nM,–
"COC(=O)NC(C)c1c(-c2nnc(C(C)(C)C)o2)nn(-c2ccc(Cl)cc2Cl)c1-c1ccc(Br)cc1 (stereo not shown) [Example 230, Methyl 1-(5-(4-bromophenyl)-3-(5-tert-butyl-1,3,4-oxadiazol-2-yl)-1-(2,4-dichlorophenyl)-1H-pyrazol-4-yl)ethylcarbamate]",9.01 nM,–
"COC(=O)NC(C)c1c(-c2nnc(C3(c4ccc(Cl)cc4)CC3)o2)nn(-c2ccc(Cl)cc2Cl)c1-c1ccc(Cl)cc1 (stereo not shown) [Example 231, Methyl 1-(5-(4-chlorophenyl)-3-(5-(1-(4-chlorophenyl)cyclopropyl)-1,3,4-oxadiazol-2-yl)-1-(2,4-dichlorophenyl)-1H-pyrazol-4-yl)ethylcarbamate]",4.06 nM,–
"COC(=O)NCc1c(-c2nnc(C(C)(C)C)o2)nn(-c2ccc(Cl)cc2Cl)c1-c1ccc(Cl)cc1 [Example 232, Methyl (3-(5-tert-butyl-1,3,4-oxadiazol-2-yl)-5-(4-chlorophenyl)-1-(2,4-dichlorophenyl)-1H-pyrazol-4-yl)methylcarbamate]",15.6 nM,–
"CC(C)(C)c1nnc(-c2nn(-c3ccc(Cl)cc3Cl)c(-c3ccc(Cl)cc3)c2COc2ccccc2)o1 [Example 233, 2-tert-butyl-5-(5-(4-chlorophenyl)-1-(2,4-dichlorophenyl)-4-(phenoxymethyl)-1H-pyrazol-3-yl)-1,3,4-oxadiazole]",28.9 nM,–
